{"source": "patent US20140179677A1", "about": "“THERAPEUTIC AGENT FOR ECTOPIC PREGNANCY” (AKITA UNIVERSITY, priority 2010, published 2014)", "key": {"[1]": {"test_system": "human placental villi transplanted under the kidney capsule", "assay": "Xenotransplantation of human villi into SCID mice as in vivo model of ectopic pregnancy", "from_the_text": "(§1) To explore the roles of endogenous TrkB signaling in human ectopic pregnancy, xenotransplantation of human placental villi at 7-8 weeks of gestation into SCID mice (C.B-17/Icr-scid/scidJcl) (CLEA Japan, Tokyo, Japan) was used as an in vivo model. The care and use of animals was approved by the Animal Research Committee, Akita University School of Medicine. In preparation of grafts, small pieces of the placental villi were dissected as described above and kept in ice-cold PBS until transplantation. After anesthetizing of the SCID mice at 8-11 weeks of age with tribromoethanol (14-20 mg/kg) (Sigma, St. Louis, Mo.), the left and right kidneys were sequentially exteriorized. A 0.5 mm incision was then made in each kidney capsule, and a piece of the placental villi (5 mg wet weight) was transplanted underneath the capsule using a blunt tip tweezers. Treatment was initiated in animals after 1 week of transplantation when murine vascular networks were known to appear in areas of cytotrophoblast invasion (Non-patent Document 18). Animals weighted between 19-22 g on day of treatment. Intraperitoneal (ip) administration of K252a dissolved in physiological saline (500 μg/kg) was performed daily. For negative controls, treatment with K252b (500 μg/kg) or vehicle alone was used. The doses of K252a and K252b chosen for these experiments were based on previous studies (Non-patent Documents 12, 19). Some animals were treated daily with methotrexate (ip; 1 mg/kg) (Sigma) corresponding to the therapeutic dose used for medical treatment of ectopic pregnancy (Non-patent Document 3). The mice were killed after 7 days of treatment. Kidneys with villi transplants were excised and homogenized to measure hCG-β levels and caspase-3/7 activities. To identify trophoblasts in the kidney, cytokeratin, a marker for trophoblasts (Non-patent Document 20), was detected by immunohistochemistry. In addition to H&E staining, in vivo cell proliferation and apoptosis in the excised samples were evaluated by immunostaining of PCNA and Ki-67, and the TUNEL assay, respectively.\n(§2) Quantitative real-time RT-PCR of TrkB and human leukocyte antigen-G (HLA-G) transcript levels in placental villi and mouse kidneys with xenotransplanted human villi was performed using a SmartCycler (Takara, Tokyo, Japan) with primers and hybridization probes for TrkB and β-actin as described (Non-patent Document 32). Primers for TrkB corresponded to the catalytic kinase domain of the receptor to avoid the amplification of truncated isoforms (Non-patent Document 33). Fragmented TrkB was specifically amplified using a reported primer (Non-patent Document 37). Validated Taqman gene expression assay was used to quantify the expression of HLA-G (Applied Biosystems, Forster City, Calif.). Data were normalized based on β-actin transcript levels.\n(§3) To localize BDNF and TrkB, BDNF and TrkB immunostaining in placental villi and villous tissues of ectopic pregnancy were performed as described (Non-patent Document 11). BDNF antigen and TrkB antigen were detected by rabbit anti-BDNF polyclonal antibody (Chemicon, Temecula, Calif.) and chicken anti-TrkB polyclonal antibody (Promega, Madison, Wis.) recognizing full length TrkB were used, respectively, after dilution to 1:100. Some slides were subjected to proliferating cell nuclear antigen (PCNA) or Ki-67 immunostaining to evaluate cellular proliferation, whereas cytokeratin and HLA-G immunostaining were performed to identify trophoblasts and extravillous trophoblasts (EVTs) in the xenotransplanted human villi, respectively. After deparaffinization and dehydration, antigen retrieval was performed by autoclave heating at 121° C. for 10 min (PCNA and Ki-67), treatment with 0.4 mg/ml proteinase K (Sigma, St. Louis, Mo.) at room temperature for 5 min (cytokeratin), or microwave heating in 10 mM citrate buffer (pH 6) for 3×3 min (HLA-G). Endogenous peroxidase activities were quenched with 0.3% […] in methanol for 30 min. […]"}, "[2]": {"test_system": "human placental villous explants (villous trophoblasts)", "assay": "Human villous explant culture: apoptosis (TUNEL, caspase-3/7 enzyme assay)", "format": "cell-based", "conditions": "96 h culture; for proportion of TUNEL-positive nuclei: TrkB ectodomain 10 μg/ml, K252a 1,000 nM, K252b 1,000 nM; for caspase-3/7 activities, increase relative to controls: villous explants, 3% O2", "protocol": "(§4) Preparation and cultivation of human villous explants of first trimester placentas were performed as described (Non-patent Document 13). Briefly, human placental villi at 6-8 weeks of gestation were aseptically dissected to remove decidual tissue and fetal membranes. Small pieces of placental villi (8 mg wet weight) were dissected under a stereomicroscope (Leica Microsystems, Tokyo, Japan). Each villous piece was put on Millicell-CM culture dish inserts (12-mm diameter) (Millipore, Bedford, Mass.) that were precoated with 200 μl of undiluted Matrigel Growth Factor Reduced (BD Bioscience pharmingen) and placed in 24-well culture plates. The villous pieces were covered with 150 μl of culture medium (DMEM/F12 without serum supplemented with 100 U/ml penicillin, 100 μg/ml streptomycin, and 0.25 μg/ml ascorbic acid, pH 7.4) (Invitrogen, Carlsbad, Calif.), whereas the bottom chamber contained 500 μl of culture medium. […] Culture media were changed every 48 h and collected for measurement of glucose concentration.\n(§5) In some experiments, morphological changes in villous explants were evaluated by hematoxylin and eosin (H&E) staining. Furthermore, the activity of cellular proliferation was determined by immunohistochemical detection of proliferating cell nuclear antigen (PCNA) and Ki-67 antigens. To measure the progression of apoptosis, some villous explants were subjected to a quantitative caspase-3/7 enzyme assay as described (Non-patent Documents 12, 16). Apoptosis in villous explants was also assayed by detecting DNA fragmentation using in situ terminal deoxynucleotidyl transferase-mediated […] nick end-labeling (TUNEL) (Non-patent Document 17)."}, "[3]": {"assay": "Side effects and body weight of treated SCID mice", "format": "in vivo", "from_the_text": "as §1, with “Animals weighted between 19-22 g on day of treatment. Intraperitoneal (ip) administration of K252a dissolved in physiological saline (500 μg/kg) was performed daily. For negative controls, treatment with K252b (500 μg/kg) or vehicle alone was used. The doses of K252a and K252b chosen for these experiments were based on previous studies (Non-patent Documents 12, 19). Some animals were treated daily with methotrexate (ip; 1 mg/kg) (Sigma) corresponding to the therapeutic dose used for medical treatment of ectopic pregnancy (Non-patent Document 3). The mice were killed after 7 days of treatment. Kidneys with villi transplants were excised and homogenized to measure hCG-β levels and caspase-3/7 activities.” left out"}, "[4]": {"test_system": "human placental villous explants (extravillous trophoblasts)", "assay": "Human villous explant culture: EVT outgrowth and HLA-G transcript levels (trophoblast differentiation)", "format": "cell-based", "conditions": "96 h culture; for EVT outgrowth: villous explants 6-8 weeks of gestation, 3% O2, different doses; for transcript levels of HLA-G: villous explants, 3% O2, real-time RT-PCR", "protocol": "as §4\n(§6) At the end of cultures, some villous explants including EVT outgrowth were subjected to RNA extraction for real-time RT-PCR to quantify the transcript levels of human leukocyte antigen-G (HLA-G). Glucose utilization by the villous explants was calculated from the difference between glucose concentration in fresh medium and that in the conditioned medium after 48 h of culture using an enzymatic assay (Mitsubishi BCL, Tokyo, Japan). The results were expressed as mg per 0.1 g wet weight tissue/48 h.\nas §2"}, "[5]": {"test_system": "human placental villous explants (villous cytotrophoblasts)", "assay": "Human villous explant culture: trophoblast proliferation and viability (H&E, PCNA, Ki-67, glucose utilization)", "format": "cell-based", "conditions": "for detachment of trophoblast layers from villous stromal core / number of villous cytotrophoblasts: 96 h culture, H&E, TrkB ectodomain 10 μg/ml, K252a 1,000 nM, K252b 1,000 nM", "protocol": "as §4, §6, §5, §3"}, "[6]": {"conditions": "K252a 500 μg/kg ip daily for 7 days"}}, "data": [{"molecule": "COC(=O)[C@@]1(O)C[C@H]2O[C@]1(C)n1c3ccccc3c3c4c(c5c6ccccc6n2c5c31)C(=O)NC4", "note": "[K252a]", "values": [{"measurement": "TUNEL-positive nuclei in cytotrophoblasts", "setting": "[1]; [6]", "result": "increases in TUNEL-positive nuclei"}, {"measurement": "activation of caspase-3/7 within the xenografts, increase relative to vehicle", "setting": "[1]; [6]", "result": 4.1, "unit": "fold"}, {"measurement": "cell proliferation by PCNA and Ki-67 staining", "setting": "[1]; [6]", "result": "suppression of cell proliferation"}, {"measurement": "transcript levels for HLA-G in kidney with transplanted villi", "setting": "[1]; [6]", "result": "major decreases in transcript levels for HLA-G"}, {"measurement": "decrease in hCG-β levels in tissue homogenates", "setting": "[1]; K252a 500 μg/kg ip daily for 7 days, RIA", "result": 73.3, "unit": "%"}, {"measurement": "cell numbers of invading EVTs and cytotrophoblasts in villous cores", "setting": "[1]; K252a 500 μg/kg ip daily for 7 days, cytokeratin, HLA-G, H&E staining", "result": "decreases in cell numbers of invading EVTs and cytotrophoblasts"}, {"measurement": "proportion of TUNEL-positive nuclei", "setting": "[2]", "result": "increased the proportion of TUNEL-positive nuclei"}, {"measurement": "caspase-3/7 activities, increase relative to controls", "setting": "[2]", "result": "Increases in caspase-3/7 activities"}, {"measurement": "body weight", "setting": "[3]; 500 μg/kg ip daily, during studies, mean±SEM", "result": "19.27 ± 1.03", "unit": "g"}, {"measurement": "body weight changes", "setting": "[3]; K252a 500 μg/kg ip daily", "result": "no body weight changes"}, {"measurement": "EVT outgrowth", "setting": "[4]", "result": "suppressed EVT outgrowth in a dose-dependent manner"}, {"measurement": "transcript levels of HLA-G", "setting": "[4]", "result": "decreases in the transcript levels of HLA-G"}, {"measurement": "detachment of trophoblast layers from villous stromal core", "setting": "[5]", "result": "induced partial detachment of trophoblast layers"}, {"measurement": "number of villous cytotrophoblasts", "setting": "[5]", "result": "decreased the number of villous cytotrophoblasts"}, {"measurement": "inhibition at 1 µM", "setting": "[5]; Homo sapiens, 48 h, read-out: glucose utilization by villous explants, inhibition", "result": "> 94", "unit": "%"}]}, {"molecule": "C[C@]12O[C@H](C[C@]1(O)C(=O)O)n1c3ccccc3c3c4c(c5c6ccccc6n2c5c31)CNC4=O", "note": "[K252b]", "values": [{"measurement": "all parameters tested in the xenotransplant model", "setting": "[1]; K252b 500 μg/kg ip daily for 7 days", "result": "ineffective"}]}, {"molecule": "TrkB ectodomain: soluble ectodomain of TrkB (R&D Systems), binds BDNF and competingly suppresses BDNF/TrkB binding", "values": [{"measurement": "proportion of TUNEL-positive nuclei", "setting": "[2]", "result": "increased the proportion of TUNEL-positive nuclei"}, {"measurement": "caspase-3/7 activities, increase relative to controls", "setting": "[2]", "result": "Increases in caspase-3/7 activities"}, {"measurement": "EVT outgrowth", "setting": "[4]", "result": "suppressed EVT outgrowth in a dose-dependent manner"}, {"measurement": "transcript levels of HLA-G", "setting": "[4]", "result": "decreases in the transcript levels of HLA-G"}, {"measurement": "detachment of trophoblast layers from villous stromal core", "setting": "[5]", "result": "induced partial detachment of trophoblast layers"}, {"measurement": "number of villous cytotrophoblasts", "setting": "[5]", "result": "decreased the number of villous cytotrophoblasts"}]}, {"molecule": "CN(Cc1cnc2nc(N)nc(N)c2n1)c1ccc(C(=O)N[C@@H](CCC(=O)O)C(=O)O)cc1", "note": "[MTX, methotrexate]", "values": [{"measurement": "trophoblast differentiation, proliferation, and survival", "setting": "[1]; MTX 1 mg/kg ip daily for 7 days", "result": "did not inhibit"}]}]}
